In the NIST ThermoML archive (doi:10.1021/je700260f):

Conditions: 333.15 K, Liquid, Vibrating tube method

FC(C(F)(F)F)C(F)(F)F [1,1,1,2,3,3,3-heptafluoropropane]
Conditions | mass density [kg/m3]
14224 kPa | 1356.7
14266 kPa | 1357
14291 kPa | 1357.2
14328 kPa | 1357.4
14371 kPa | 1357.7
14400 kPa | 1357.8
14435 kPa | 1358.2
14458 kPa | 1358.3
14483 kPa | 1358.5
14514 kPa | 1358.6
14545 kPa | 1358.8
14575 kPa | 1359.1
14609 kPa | 1359.3
14631 kPa | 1359.4
14665 kPa | 1359.7
14691 kPa | 1359.8
14717 kPa | 1360
14746 kPa | 1360.2
14768 kPa | 1360.3
14798 kPa | 1360.5
15205 kPa | 1363.1
15236 kPa | 1363.4
15290 kPa | 1363.8
15717 kPa | 1366.6
15745 kPa | 1366.7
15780 kPa | 1366.8
15812 kPa | 1367.1
15836 kPa | 1367.2
15868 kPa | 1367.4
15899 kPa | 1367.6
15926 kPa | 1367.8
16438 kPa | 1370.9
16464 kPa | 1371.3
16489 kPa | 1371.4
16519 kPa | 1371.5
16626 kPa | 1372.2
16683 kPa | 1372.5
16707 kPa | 1372.8
16730 kPa | 1372.7
16761 kPa | 1373
17906 kPa | 1379.9
17932 kPa | 1379.9
17962 kPa | 1380.3
17993 kPa | 1380.3
18015 kPa | 1380.5
18050 kPa | 1380.7
18080 kPa | 1380.9
18108 kPa | 1381
19508 kPa | 1388.9
19537 kPa | 1389
19563 kPa | 1389.2
19597 kPa | 1389.4
19624 kPa | 1389.6
19650 kPa | 1389.8
19677 kPa | 1389.8
20749 kPa | 1395.7
20777 kPa | 1395.9
20814 kPa | 1396
20842 kPa | 1396.2
20873 kPa | 1396.4
20901 kPa | 1396.5
20931 kPa | 1396.6
20957 kPa | 1396.9
20979 kPa | 1396.9
21008 kPa | 1397
21033 kPa | 1397.1
21063 kPa | 1397.3
21088 kPa | 1397.5
21120 kPa | 1397.5
21148 kPa | 1397.8
21172 kPa | 1397.9
21205 kPa | 1398
21229 kPa | 1398.2
21270 kPa | 1398.3
21296 kPa | 1398.6
21327 kPa | 1398.7
21360 kPa | 1398.9
21397 kPa | 1399.2
21645 kPa | 1400.3
21675 kPa | 1400.5
21704 kPa | 1400.7
21740 kPa | 1400.8
21764 kPa | 1401
21831 kPa | 1401.4
21897 kPa | 1401.7
21932 kPa | 1401.8
22798 kPa | 1406.2
22829 kPa | 1406.3
22856 kPa | 1406.5
22880 kPa | 1406.7
22918 kPa | 1406.7
22954 kPa | 1407
23854 kPa | 1411.4
25147 kPa | 1417.6
25181 kPa | 1417.7
25224 kPa | 1417.9
25251 kPa | 1417.9
25279 kPa | 1418.1
25312 kPa | 1418.3
25354 kPa | 1418.4
25387 kPa | 1418.6
25415 kPa | 1418.7
